Here are results for 25 compounds from patent publication US20020103377A1, “Piperidinyloxy and pyrrolidinyloxy oxazolidinone antibacterials” (priority 1999, published 2002).

Structures are written as SMILES. In brackets after ≈: the same amount, converted by molar mass. Some results are limits rather than exact numbers.

For one assay, the system named is E. faecium OC3312. Nature of the assay: MIC by microdilution broth method (NCCLS), E. faecium OC3312. It counts as cell-based. The conditions noted are these: cation adjusted Mueller-Hinton broth, 35° C., 16-20 hours; for MIC: Enterococcus faecium, OC3312, microdilution broth, read-out: MIC (μg/mL) E. faecium OC3312. How it is done:
(§1) Minimal inhibitory concentration (MIC) has been an indicator of in vitro antibacterial activity widely used in the art. The in vitro antimicrobial activity of the compounds was determined by the microdilution broth method following the test method from the National Committee for Laboratory Standards (NCCLS). This method is described in the NCCLS Document M7-A4, Vol. 17, No.2, “Methods for Dilution Antimicrobial Susceptibility Test for Bacteria that Grow Aerobically-Fourth Edition”, which is incorporated herein by reference.
(§2) In this method two-fold serial dilutions of drug in cation adjusted Mueller-Hinton broth are added to wells in microdilution trays. The test organisms are prepared by adjusting the turbidity of actively growing broth cultures so that the final concentration of test organism after it is added to the wells is approximately 5×10^4 CFU/well.
(§3) Following inoculation of the microdilution trays, the trays are incubated at 35° C. for 16-20 hours and then read. […] The amount of growth in the wells containing the test compound is compared with the amount of growth in the growth-control wells (no test compound) used in each tray. As set forth in Table 1, compounds of the present invention were tested against a variety of Gram positive and Gram negative pathogenic bacteria resulting in a range of activities, from 1 to ≧128 μg/mL depending on the organism tested.

A further assay has as its system MRSA OC 2878. Nature of the assay: MIC by microdilution broth method (NCCLS), MRSA OC 2878. The conditions noted are these: cation adjusted Mueller-Hinton broth, 35° C., 16-20 hours; for MIC: Staphylococcus aureus, MRSA, read-out: MIC (μg/mL) MRSA OC 2878. Format: cell-based, Staphylococcus aureus. The procedure: as §1, §2, §3
The next assay deals with S. aureus. Briefly: MIC by microdilution broth method (NCCLS), S. aureus Broth. Format: cell-based. The conditions noted are these: cation adjusted Mueller-Hinton broth, 35° C., 16-20 hours; for MIC: Staphylococcus aureus, read-out: MIC (μg/mL) S. aureus Broth. How it is done: as §1, §2, §3

For the compound `COc1cccc(C(=O)N2CCC(Oc3ccc(N4C[C@H](CNC(C)=O)OC4=O)cn3)CC2)c1` [Compound 48, (5S)-3-[6-{N-(3-Methoxybenzoyl)piperidinyl-4-oxy}-pyridin-3-yl]-5-methylacetamide-oxazolidin-2-one], the MIC is over 128 µg/mL in the assay on E. faecium OC3312, 32 µg/mL (≈ 68.3 µM) in the assay with MRSA OC 2878 and 64 µg/mL (≈ 137 µM) with S. aureus.

As to `CC(=O)NC[C@H]1CN(c2ccc(OC3CCN(C(=O)CCc4ccccc4)CC3)c(F)c2)C(=O)O1` [Compound 28, (S)-N-[[3-[3-Fluoro-4-{N-(3-phenyl-propionyl)piperidinyl-4-oxy}phenyl]-2-oxo-5-oxazolidinyl]methyl]acetamide], the values for the MIC with E. faecium OC3312, in the assay with MRSA OC 2878 and in the assay on S. aureus were 16 µg/mL (≈ 33.1 µM), 8 µg/mL (≈ 16.5 µM) and 16 µg/mL (≈ 33.1 µM), respectively.

`CC(=O)NC[C@H]1CN(c2ccc(OC3CCN(C(=O)COCc4ccncc4)CC3)c(F)c2)C(=O)O1` [Compound 54]: the MIC with E. faecium OC3312, in the assay with MRSA OC 2878 and with S. aureus was 8 µg/mL (≈ 16 µM) in each case.

Take `CC(=O)NC[C@H]1CN(c2ccc(OC3CCN(C(=O)CN4CCOCC4)CC3)c(F)c2)C(=O)O1` [Compound 56]: the MIC in the assay on E. faecium OC3312, with MRSA OC 2878 and in the assay on S. aureus was 32 µg/mL (≈ 66.9 µM) throughout.

On to `CC(=O)NC[C@H]1CN(c2ccc(OC3CCN(C(=O)c4ccncc4)CC3)c(F)c2)C(=O)O1` [Compound 21, (S)-N-[[3-[3-Fluoro-4-{N-(4-pyridoyl)piperidinyl-4-oxy}phenyl]-2-oxo-5-oxazolidinyl]methyl]acetamide], for which the MIC in the assay on E. faecium OC3312 was determined as 64 µg/mL (≈ 140 µM); with MRSA OC 2878, 32 µg/mL (≈ 70.1 µM); with S. aureus it was 32 µg/mL (≈ 70.1 µM).

As for `CC(=O)NC[C@H]1CN(c2ccc(OC3CCN(C(=O)CNC(=O)OCc4ccccc4)CC3)c(F)c2)C(=O)O1` [Compound 15], the MIC in the assay with E. faecium OC3312, in the assay on MRSA OC 2878 and with S. aureus was 8 µg/mL (≈ 14.7 µM) each time.

For `CC(=O)NC[C@H]1CN(c2ccc(OC3CCN(C(=O)COCc4ccccc4)CC3)nc2)C(=O)O1` [Compound 42, (5S)-3-[6-{N-(Benzyloxyacetyl)piperidinyl-4-oxy}-pyridin-3-yl]-5-methylacetamide-oxazolidin-2-one], the MIC was over 128 µg/mL in the assay on E. faecium OC3312, 32 µg/mL (≈ 66.3 µM) with MRSA OC 2878 and 32 µg/mL (≈ 66.3 µM) in the assay on S. aureus.

As to `CC(=O)NC[C@H]1CN(c2ccc(OC3CCCN(C(=O)COCc4ccccc4)C3)c(F)c2)C(=O)O1` (stereo partly drawn) [Compound 35, (S)-N-[[3-[3-Fluoro-4-{N-(benzyloxyacetyl)piperidinyl-3-oxy}phenyl]-2-oxo-5-oxazolidinyl]methyl]acetamide], the MIC in the assay on E. faecium OC3312 was 64 µg/mL (≈ 128 µM); in the assay on MRSA OC 2878, 32 µg/mL (≈ 64.1 µM); in the assay with S. aureus it was 32 µg/mL (≈ 64.1 µM).

For the compound `COC(=O)N1CCC(Oc2ccc(N3C[C@H](CNC(C)=O)OC3=O)cc2F)CC1` [Compound 8, (S)-N-[[3-[3-fluoro-4-{N-(methoxycarbonyl)piperidinyl-4-oxy}phenyl]-2-oxo-5-oxazolidinyl]methyl]acetamide], the MIC was determined as 8 µg/mL (≈ 19.5 µM) in the assay on E. faecium OC3312, 4 µg/mL (≈ 9.77 µM) in the assay on MRSA OC 2878 and 8 µg/mL (≈ 19.5 µM) in the assay with S. aureus.

On to `CC(=O)OCC(=O)N1CC(Oc2ccc(N3C[C@H](CN(C(C)=O)C(=O)COC(C)=O)OC3=O)cc2F)C1` [Compound 60, (S)-N-[[3-[3-Fluoro-4-{N-(acetoxyacetyl)azetidinyl-3-oxy}phenyl]-2-oxo-5-oxazolidinyl]methyl]-N-[α-acetoxyacetyl]acetamide], for which the MIC is over 128 µg/mL in the assay with E. faecium OC3312, 16 µg/mL (≈ 30.6 µM) in the assay on MRSA OC 2878 and 8 µg/mL (≈ 15.3 µM) in the assay on S. aureus.

For the compound `CC(=O)NC[C@H]1CN(c2ccc(OC3CCN(C(=O)COCc4ccccc4)CC3)c(F)c2)C(=O)O1` [Compound 3, (S)-N-[[3-[3-Fluoro-4-{N-(benzyloxyacetyl)piperidinyl-4-oxy}phenyl]-2-oxo-5-oxazolidinyl]methyl]acetamide], the “MIC (μg/mL) E. faecium OC3312” value with E. faecium OC3312 (microdilution broth) is 4 µg/mL (≈ 8.01 µM). In the assay on MRSA OC 2878, the “MIC (μg/mL) MRSA OC 2878” value was 2 µg/mL (≈ 4 µM). Also, the “MIC (μg/mL) S. aureus Broth” value in the assay with S. aureus was 4 µg/mL (≈ 8.01 µM).

As for `CC(=O)NC[C@H]1CN(c2ccc(OC3CCN(S(C)(=O)=O)CC3)cc2)C(=O)O1` [Compound 33, (S)-N-[[3-[4-{N-(Methanesulfonyl)piperidinyl-4-oxy}phenyl]-2-oxo-5-oxazolidinyl]methyl]acetamide], the MIC is 32 µg/mL (≈ 77.8 µM) in the assay on E. faecium OC3312, 16 µg/mL (≈ 38.9 µM) in the assay with MRSA OC 2878 and 16 µg/mL (≈ 38.9 µM) in the assay with S. aureus.

As for `CC(=O)NC[C@H]1CN(c2ccc(OC3CCN(C(=O)c4cccc(F)c4)CC3)nc2)C(=O)O1` [Compound 47, (5S)-3-[6-{N-(3-Fluorobenzoyl)piperidinyl-4-oxy}-pyridin-3-yl]-5-methylacetamide-oxazolidin-2-one], the values for the MIC in the assay on E. faecium OC3312, with MRSA OC 2878 and with S. aureus were over 128 µg/mL, 64 µg/mL (≈ 140 µM) and 64 µg/mL (≈ 140 µM), respectively.

For the compound `CC(=O)NC[C@H]1CN(c2ccc(OC3CCCN(C(=O)CO)C3)c(F)c2)C(=O)O1` (stereo partly drawn) [Compound 36, (S)-N-[[3-[3-Fluoro-4-{N-(α-hydroxyacetyl)piperidinyl-3-oxy}phenyl]-2-oxo-5-oxazolidinyl]methyl]acetamide], the MIC with E. faecium OC3312 is 16 µg/mL (≈ 39.1 µM); in the assay on MRSA OC 2878, 8 µg/mL (≈ 19.5 µM); in the assay with S. aureus it was 8 µg/mL (≈ 19.5 µM).

As for `CC(=O)NC[C@H]1CN(c2ccc(OC3CCN(C(=O)CO)CC3)cc2)C(=O)O1` [Compound 31, (S)-N-[[3-[4-{N-(α-Hydroxyacetyl)piperidinyl-4-oxy}phenyl]-2-oxo-5-oxazolidinyl]methyl]acetamide], the MIC in the assay on E. faecium OC3312 amounted to 32 µg/mL (≈ 81.8 µM); in the assay with MRSA OC 2878 it was 16 µg/mL (≈ 40.9 µM); in the assay with S. aureus, 16 µg/mL (≈ 40.9 µM).

As to `CC(=O)NC[C@H]1CN(c2ccc(OC3CCN(C(=O)C(NC(=O)OCc4ccccc4)C(C)C)CC3)nc2)C(=O)O1` (stereo partly drawn) [Compound 50], the MIC is over 64 µg/mL in the assay on E. faecium OC3312, 64 µg/mL (≈ 113 µM) in the assay with MRSA OC 2878 and over 64 µg/mL in the assay with S. aureus.

In the case of `CC(=O)NC[C@H]1CN(c2ccc(OC3CCN(C(C)=O)CC3)c(F)c2)C(=O)O1` [Compound 7, (S)-N-[[3-[3-Fluoro-4-{N-(acetyl)piperidinyl-4-oxy}phenyl]-2-oxo-5-oxazolidinyl]methyl]acetamide], the MIC with E. faecium OC3312 was 16 µg/mL (≈ 40.7 µM); with MRSA OC 2878, 8 µg/mL (≈ 20.3 µM); in the assay with S. aureus, 8 µg/mL (≈ 20.3 µM).

In the case of `COCC(=O)N1CCC(Oc2ccc(N3C[C@H](CNC(C)=O)OC3=O)cc2F)CC1` [Compound 5, (S)-N-[[3-[3-Fluoro-4-{N-(methoxyacetyl)piperidinyl-4-oxy}phenyl]-2-oxo-5-oxazolidinyl]methyl]acetamide], the MIC in the assay on E. faecium OC3312 is 16 µg/mL (≈ 37.8 µM); in the assay on MRSA OC 2878, 8 µg/mL (≈ 18.9 µM); in the assay on S. aureus it was 8 µg/mL (≈ 18.9 µM).

For `CC(=O)NC[C@H]1CN(c2ccc(OC3CCN(C(=O)c4ccno4)CC3)c(F)c2)C(=O)O1` [Compound 52, (S)-N-[[3-[3-Fluoro-4-{N-(5-isoxazolylcarbonyl)piperdinyl-4-oxy}phenyl]-2-oxo-5-oxazolidinyl]methyl]acetamide], the MIC in the assay with E. faecium OC3312 was 4 µg/mL (≈ 8.96 µM); in the assay with MRSA OC 2878, 8 µg/mL (≈ 17.9 µM); with S. aureus, 8 µg/mL (≈ 17.9 µM).

With `CC(=O)NC[C@H]1CN(c2ccc(OC3CCN(C(C)=O)CC3)nc2)C(=O)O1` [Compound 43, (5S)-3-[6-{N-(Acetyl)piperidinyl-4-oxy}-pyridin-3-yl]-5-methylacetamide-oxazolidin-2-one], the values for the MIC in the assay on E. faecium OC3312, in the assay with MRSA OC 2878 and in the assay with S. aureus were over 128 µg/mL, 128 µg/mL (≈ 340 µM) and 128 µg/mL (≈ 340 µM), respectively.

Consider `CC(=O)NC[C@H]1CN(c2ccc(OC3CCN(C(=O)c4ccc(C#N)cc4)CC3)nc2)C(=O)O1` [Compound 45, (5S)-3-[6-{N-(4-Cyanobenzoyl)piperidinyl-4-oxy}-pyridin-3-yl]-5-methylacetamide-oxazolidin-2-one], for which the MIC with E. faecium OC3312 is 128 µg/mL (≈ 276 µM); in the assay with MRSA OC 2878 it was 64 µg/mL (≈ 138 µM); in the assay with S. aureus it was 64 µg/mL (≈ 138 µM).

With `CC(=O)NC[C@H]1CN(c2ccc(OC3CCN(C(C)=O)CC3)cc2)C(=O)O1` [Compound 32, (S)-N-[[3-[4-{N-(Acetyl)piperidinyl-4-oxy}phenyl]-2-oxo-5-oxazolidinyl]methyl]acetamide], the values for the MIC in the assay with E. faecium OC3312, in the assay on MRSA OC 2878 and in the assay on S. aureus were 32 µg/mL (≈ 85.2 µM), 8 µg/mL (≈ 21.3 µM) and 16 µg/mL (≈ 42.6 µM), respectively.

On to `CC(=O)NC[C@H]1CN(c2ccc(OC3CCN(C(=O)CO)CC3)c(F)c2)C(=O)O1` [Compound 4, (S)-N-[[3-[3-Fluoro-4-{N-(α-hydroxyacetyl)piperidinyl-4-oxy}phenyl]-2-oxo-5-oxazolidinyl]methyl]acetamide], for which the MIC in the assay on E. faecium OC3312 is 8 µg/mL (≈ 19.5 µM); in the assay with MRSA OC 2878, 4 µg/mL (≈ 9.77 µM); in the assay with S. aureus, 4 µg/mL (≈ 9.77 µM).

`CC(=O)NC[C@H]1CN(c2ccc(OC3CCN(C(=O)COCc4cccnc4)CC3)c(F)c2)C(=O)O1` [Compound 55]: the MIC worked out at 8 µg/mL (≈ 16 µM) in the assay with E. faecium OC3312, 16 µg/mL (≈ 32 µM) in the assay with MRSA OC 2878 and 16 µg/mL (≈ 32 µM) with S. aureus.

As to `COc1ccc(C(=O)N2CCC(Oc3ccc(N4C[C@H](CNC(C)=O)OC4=O)cc3F)CC2)cc1` [Compound 13, (S)-N-[[3-[3-Fluoro-4-{N-(4-methoxybenzoyl)piperidinyl-4-oxy}phenyl]-2-oxo-5-oxazolidinyl]methyl]acetamide], the figures for the MIC in the assay with E. faecium OC3312, in the assay with MRSA OC 2878 and with S. aureus were 16 µg/mL (≈ 33 µM), 8 µg/mL (≈ 16.5 µM) and 8 µg/mL (≈ 16.5 µM), respectively.
